Test results: patent US20180319810A1, “SUBSTITUTED BRIDGED UREA ANALOGS AS SIRTUIN MODULATORS” (GlaxoSmithKline Intellectual Property (No.2) Limited, priority 2014, published 2018)

Molecular target: T1, SIRT1 (Homo sapiens, UniProt Q96EB6)
T1 sequence (Q96EB6 1-747): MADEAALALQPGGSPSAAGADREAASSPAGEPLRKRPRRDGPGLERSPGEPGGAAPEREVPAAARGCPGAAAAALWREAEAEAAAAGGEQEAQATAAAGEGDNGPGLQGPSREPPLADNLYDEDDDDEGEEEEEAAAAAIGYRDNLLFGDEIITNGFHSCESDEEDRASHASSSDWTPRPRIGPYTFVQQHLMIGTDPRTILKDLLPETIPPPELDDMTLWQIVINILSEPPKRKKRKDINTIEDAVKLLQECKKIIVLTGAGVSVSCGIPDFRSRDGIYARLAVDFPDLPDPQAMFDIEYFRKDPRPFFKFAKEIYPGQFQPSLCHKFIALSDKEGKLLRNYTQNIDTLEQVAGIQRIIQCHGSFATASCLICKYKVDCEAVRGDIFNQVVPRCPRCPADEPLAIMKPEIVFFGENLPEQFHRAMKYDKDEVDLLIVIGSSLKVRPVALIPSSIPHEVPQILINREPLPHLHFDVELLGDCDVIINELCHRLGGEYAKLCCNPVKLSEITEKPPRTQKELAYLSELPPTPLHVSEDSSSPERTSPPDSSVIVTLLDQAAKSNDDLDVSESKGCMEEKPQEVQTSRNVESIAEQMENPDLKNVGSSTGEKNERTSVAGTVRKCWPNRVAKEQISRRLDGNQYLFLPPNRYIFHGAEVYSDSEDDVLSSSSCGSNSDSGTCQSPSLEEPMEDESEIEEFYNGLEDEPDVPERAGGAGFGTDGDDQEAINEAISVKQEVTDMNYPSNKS
Assay: Trp mass spectrometry assay of SIRT1 activation
Assay type: biochemical
Conditions: Trp peptide Ac-R-H-K-K(Ac)-W-NH2 0.5 μM, 120 μM βNAD+, 10 nM SIRT1, 25 min, 25° C.

Row | Structure (SMILES) | TRP Activity (EC1.5, concentration of compound required to increase SIRT1 activity by 50% over control) | TRP MAX RESP (percent maximum fold activation relative to control)
1 | O=C(Nc1cncc(OC[C@H](O)CO)n1)N1c2nc(-c3cccc(C(F)(F)F)c3)ncc2N2CCC[C@H]1C2 [Example 95, (9S)—N-(6-((R)-2,3-dihydroxypropoxy)pyrazin-2-yl)-2-(3-(trifluoromethyl)phenyl)-8,9-dihydro-6H-5,9-methanopyrimido[4,5-b][1,4]diazocine-10(7H)-carboxamide] | A (EC1.5<1 μM) | A (Fold activation ≥150%)
2 | CCNC(=O)N1c2nc(-c3cccc(C(F)(F)F)c3)ncc2N2CC[C@H]1C2.Cl [Example 21, (8S)—N-ethyl-2-(3-(trifluoromethyl)phenyl)-7,8-dihydro-5,8-methano pyrimido[4,5-b][1,4]diazepine-9(6H)-carboxamide, Hydrochloride] | A (EC1.5<1 μM) | A (Fold activation ≥150%)
3 | O=C(Nc1cnc(OC[C@H](O)CO)cn1)N1c2nc(-c3cccc(C(F)(F)F)c3)ncc2N2CC[C@H]1C2 [Example 18, (8S)—N-(5-((R)-2,3-dihydroxypropoxy)pyrazin-2-yl)-2-(3-(trifluoromethyl)phenyl)-7,8-dihydro-5,8-methanopyrimido[4,5-b][1,4]diazepine-9(6H)-carboxamide] | B (EC1.5 1-25 μM) | A (Fold activation ≥150%)
4 | C[C@@H](NC(=O)c1ncc2c(n1)N(C(=O)Nc1nccc(OC[C@@H](O)CO)n1)[C@H]1CCCN2C1)C(F)(F)F [Example 76, (9S)—N10-(4-((S)-2,3-dihydroxypropoxy)pyrimidin-2-yl)-N2-((R)-1,1,1-trifluoropropan-2-yl)-8,9-dihydro-6H-5,9-methanopyrimido[4,5-b][1,4]diazocine-2,10(7H)-dicarboxamide] | B (EC1.5 1-25 μM) | A (Fold activation ≥150%)
5 | O=C(Nc1cnnc(OC[C@@H](O)CO)c1)N1c2nc(-c3cccc(C(F)(F)F)c3)ncc2N2CC[C@H]1C2 [Example 54, (8S)—N-(6-((S)-2,3-dihydroxypropoxy)pyridazin-4-yl)-2-(3-(trifluoromethyl)phenyl)-7,8-dihydro-5,8-methanopyrimido[4,5-b][1,4]diazepine-9(6H)-carboxamide] | B (EC1.5 1-25 μM) | A (Fold activation ≥150%)
6 | O=C(Nc1cc(OC[C@@H](O)CO)ccn1)N1c2nc(-c3cccc(C(F)(F)F)c3)ncc2N2CCC[C@H]1C2 [Example 91, (9S)—N-(4-((S)-2,3-dihydroxypropoxy)pyridin-2-yl)-2-(3-(trifluoromethyl)phenyl)-8,9-dihydro-6H-5,9-methanopyrimido[4,5-b][1,4]diazocine-10(7H)-carboxamide] | A (EC1.5<1 μM) | A (Fold activation ≥150%)
7 | O=C(Nc1ccc(OC[C@H](O)CO)nc1)N1c2nc(-c3cccc(C(F)(F)F)c3)ncc2N2CC[C@H]1C2 [Example 39, (8S)—N-(6-((R)-2,3-dihydroxypropoxy)pyridin-3-yl)-2-(3-(trifluoromethyl)phenyl)-7,8-dihydro-5,8-methanopyrimido[4,5-b][1,4]diazepine-9(6H)-carboxamide] | A (EC1.5<1 μM) | A (Fold activation ≥150%)
8 | O=C(Nc1ncc(OC[C@H](O)CO)cn1)N1c2nc(-c3cccc(C(F)(F)F)c3)ncc2N2CCC[C@H]1C2 [Example 105, (9S)—N-(5-((R)-2,3-dihydroxypropoxy)pyrimidin-2-yl)-2-(3-(trifluoromethyl)phenyl)-8,9-dihydro-6H-5,9-methanopyrimido[4,5-b][1,4]diazocine-10(7H)-carboxamide] | A (EC1.5<1 μM) | A (Fold activation ≥150%)
